13 compounds from ChEMBL document CHEMBL2010654, “Novel isoxazole polycyclic aromatic hydrocarbons as DNA-intercalating agents” (Eur J Med Chem, 2012) can be followed below.

The test system of experiment [1] is HeLa. As to the kind of experiment: Cytotoxicity against human HeLa cells after 20 hrs by MTS assay. In kind it is functional, cell-based. On the technique in general: Tetrazolium dyes change colour on reduction, which living cells bring about.
Experiment [2] has as its system A549. Briefly: Cytotoxicity against human A549 cells after 20 hrs by SRB assay. It counts as functional, cell-based. Conditions: A549, 20 h.
For experiment [3], the system named is MOLT-3. As to the kind of experiment: Cytotoxicity against human MOLT3 cells after 20 hrs by MTS assay. It counts as functional, cell-based. Conditions: MOLT-3, 20 h.
Experiment [4] deals with THP-1. Briefly: Cytotoxicity against human THP1 cells after 20 hrs by MTS assay. In kind it is functional, cell-based. Conditions: THP-1, 20 h.
Experiment [5] deals with U-937. Briefly: Cytotoxicity against human U937 cells after 20 hrs by MTS assay. In kind it is functional, cell-based. Conditions: U-937, 20 h.
The test system of experiment [6] is Vero. As to the kind of experiment: Cytotoxicity against african green monkey Vero cells after 20 hrs by MTS assay. The following applies: Chlorocebus sabaeus. In kind it is cell-based.
Experiment [7] deals with Nucleic Acid. Briefly: Binding affinity to calf thymus DNA by UV titration analysis. In kind it is nucleic-acid assay. The following applies: Bos taurus.
For experiment [8], the system named is A549. Briefly: Cytotoxicity against human A549 cells assessed as reduction of cell number at 0.5 ug/ml after 8 hrs relative to control. In kind it is functional. Set-up: scale not given: the % may be the effect or the level left.
Experiment [9] has as its system Nucleic Acid. As to the kind of experiment: Binding affinity to Escherichia coli supercoiled phiX174 RF1 DNA assessed as DNA unwinding in presence of topoisomerase 1 after 30 mins by agarose gel electrophoresis. It counts as nucleic-acid assay.
The subject of experiment [10] is Nucleic Acid. As to the kind of experiment: Binding affinity to poly-d(AT)2 DNA by UV titration analysis. In kind it is nucleic-acid assay.
The test system of experiment [11] is Nucleic Acid. Briefly: Binding affinity to polyd(GC)2 DNA by UV titration analysis. It counts as nucleic-acid assay.

Structures are written as SMILES. The source made the active and inactive calls. The rule behind the calls is not given here. *1 amine or outer side, *2 acyl side, *3 side chain or, on linkers, in order; H or OH if unused. Where a SMILES comes first, the peptide text is derived from it. Bridges are numbered along the chain shown (N, C = ends). Roman numbers before positions name the chains, in order. [ ]: non-standard residue; d: D form. Actinocin(1to9) = Cc1c2oc3c(C)ccc(C(=O)[*:2])c3nc-2c(C(=O)[*:1])c(N)c1=O; NMeV = CN[C@H](C(=O)O)C(C)C; Sar = CNCC(=O)O

What is called IC50 is the concentration that gives 50% inhibition. In the case of `CN(C)C(=O)[C@H]1C[C@H](c2cc3ccccc3c3ccccc23)N(C)O1`, the half-maximal inhibitory concentration (IC50) in [1] amounted to 86 µM; in experiment [2], 68 µM; in experiment [3], 105 µM; in experiment [4], 95 µM; in experiment [5], 98 µM; in experiment [6], 160 µM.

Consider `CN(C)C(=O)C1CC(c2ccc3ccc4cccc5ccc2c3c45)=NO1` (configuration not stated), for which the IC50 in [1] turned out to be 69 µM; in experiment [2] it was 49 µM; in [3], 65 µM; in experiment [4] it was 69 µM; in experiment [5], 194 µM; in experiment [6], 160 µM.

Take `CN(C)C(=O)[C@H]1C[C@H](c2ccc3ccc4cccc5ccc2c3c45)N(C)O1` (racemic): the half-maximal inhibitory concentration (IC50) came to 63 µM in [1]; 41 µM in experiment [2]; 52 µM in experiment [3]; 60 µM in [4]; 165 µM in [5]; 141 µM in experiment [6].

Consider `CN(C)C(=O)C1CC(c2cc3ccccc3c3ccccc23)=NO1` (configuration not stated), for which the half-maximal inhibitory concentration (IC50) in [1] was 401 µM; in experiment [2], 435 µM; in [3] it was greater than 500 µM; in [4], greater than 500 µM; in [5] it was greater than 500 µM; in [6] it was greater than 500 µM.

In [7], `CN1O[C@H](CO)C[C@@H]1c1ccc2ccc3cccc4ccc1c2c34` (relative stereo) showed a Kb of 6.8 ×10³ /M.

Turning to `Cc1c2oc3c(C)ccc(C(=O)N[C@@H]4C(=O)N[C@H](C(C)C)C(=O)N5CCC[C@H]5C(=O)N(C)CC(=O)N(C)[C@@H](C(C)C)C(=O)O[C@@H]4C)c3nc-2c(C(=O)N[C@@H]2C(=O)N[C@H](C(C)C)C(=O)N3CCC[C@H]3C(=O)N(C)CC(=O)N(C)[C@@H](C(C)C)C(=O)O[C@@H]2C)c(N)c1=O` [DACTINOMYCIN] (I: T[dV]P[Sar][NMeV] / II: T[dV]P[Sar][NMeV]; ester I:1-I:C, II:1-II:C; linker I:N-II:N via Actinocin(1to9)), the Activity in experiment [8] is listed as 40%.

Consider `CN(C)C(=O)[C@@H]1CON(C)[C@H]1c1ccc2ccc3cccc4ccc1c2c34` (racemic), for which the IC50 in experiment [1] worked out at 65 µM; in experiment [2], 44 µM; in [3], 59 µM; in experiment [4], 61 µM; in experiment [5] it was 185 µM; in experiment [6] it was 143 µM.

`CN(C)C(=O)[C@@H]1C[C@H](c2ccc3ccc4cccc5ccc2c3c45)N(C)O1` (racemic): the IC50 came out at 75 µM in experiment [1]; 55 µM in experiment [2]; 69 µM in experiment [3]; 75 µM in experiment [4]; 199 µM in [5]; 163 µM in experiment [6].

With `CN(C)C(=O)[C@H]1C[C@H](c2ccc3ccc4cccc5ccc2c3c45)N(Cc2ccccc2)O1` (racemic), the IC50 in experiment [1] turned out to be 5 µM; in experiment [2], 4 µM; in experiment [3] it was 6 µM; in [4], 6 µM; in experiment [5], 37 µM; in experiment [6], 42 µM. Moreover, in [9], the outcome was Active. The Kb in experiment [7] came out at 1.7 ×10⁵ /M; in experiment [10], 1.6 ×10⁵ /M; in experiment [11], 0.3 ×10⁵ /M.

As for `CN(C)C(=O)c1cc(-c2cc3ccccc3c3ccccc23)no1`, the half-maximal inhibitory concentration (IC50) in experiment [1] is 290 µM; in experiment [2], 335 µM; in experiment [3], 420 µM; in experiment [4], 403 µM; in [5], greater than 500 µM; in experiment [6], greater than 500 µM.

For the compound `CN(C)C(=O)[C@H]1CON(Cc2ccccc2)[C@H]1c1ccc2ccc3cccc4ccc1c2c34` (racemic), the IC50 was 79 µM in [1]; 63 µM in experiment [2]; 100 µM in experiment [3]; 93 µM in [4]; 102 µM in [5]; 151 µM in experiment [6].

Take `CN(C)C(=O)[C@H]1C[C@H](c2cc3ccccc3c3ccccc23)N(Cc2ccccc2)O1` (racemic): the half-inhibitory concentration (IC50) in [1] is 14 µM; in experiment [2], 10 µM; in experiment [3] it was 15 µM; in [4], 17 µM; in experiment [5], 100 µM; in experiment [6], 115 µM.

Turning to `CN(C)C(=O)c1cc(-c2ccc3ccc4cccc5ccc2c3c45)no1`, the IC50 is 71 µM in [1]; 60 µM in experiment [2]; 73 µM in [3]; 78 µM in experiment [4]; 202 µM in experiment [5]; 165 µM in [6].
